# Laboratory results as given in patent publication US20250114451A1, “REDUCING POLYSORBATE DEGRADATION IN PROTEIN FO[…] LOW AMOUNTS OF CITRIC ACID” (LONZA LTD, priority 2022, published 2025).
# Conditions: 0.1 mM, 1 mM, 10 mM, 20 mM citric acid vs 0 mM; Rituximab Protein A eluate 1.4 mg/mL, 0.02% (w/v) PS80, pH 6; 2 weeks and 4 weeks at 40° C.
# Method: A formulation buffer containing 25 mM L-His/L-His HCl at pH 6.0, 600 mM sucrose and 0.05% (w/v) PS80 was prepared. The solution was filtered over a 0.22 μm PVDF Durapore® sterile filter.
# A second solution of 40 mM citric acid at pH 6.0 was prepared and filtered over a 0.22 μm PVDF Durapore® sterile filter. In addition to the 40 mM citric acid stock solution, dilutions of the 40 mM citric acid solution at a target concentration of 20 mM, 2 mM and 0.2 mM using water were prepared.
# Five protein formulation samples were prepared each by spiking 320 μL of the downstream purification sample (Rituximab Protein A eluate, 18 g/L) into 1680 μL of the above prepared formulation buffer in five different particle-free Nalgene bottles. […]
# Analyzing polysorbate degradation in protein formulation samples 1.2 mL of each of the protein formulation sample were aliquoted into particle-free Nalgene tubes and placed into a 40° C. stability chamber. The samples were analysed after 2 week and 4 weeks of incubation using HPLC-FMA against a standard curve of intact PS80 in water.
# The HPLC-FMA measurement was performed using a high-performance liquid chromatography (HPLC) system (Waters Alliance e2695) equipped with an isocratic pump, fluorescence detector (Waters 2475 FLR Detector), auto sampler and knitted reaction coil 1 mL (Supelco #57410-U). […] Fluorescence was measured at λex=350 nm and λem=420 nm. […]
smiles,measurement,value
"O=C(O)CC(O)(CC(=O)O)C(=O)O [citric acid, Citric acid monohydrate]",PS80 concentration / polysorbate degradation in protein formulation,effective in reducing polysorbate degradation
